{"source": "paper PMC6284238", "about": "(Neuron, 2017)", "molecular_target": "T1, zebrafish SARM1-TIR (Danio rerio, UniProt F1QWA8)", "T1 sequence (F1QWA8 552-695 limits assumed)": "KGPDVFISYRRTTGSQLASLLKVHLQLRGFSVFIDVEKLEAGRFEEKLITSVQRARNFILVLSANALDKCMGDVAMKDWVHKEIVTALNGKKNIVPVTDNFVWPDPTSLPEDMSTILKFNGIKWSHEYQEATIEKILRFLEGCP", "test": "NADase assay with HPLC, purified bacterial protein", "assay_type": "biochemical"}
{"smiles": "NC(=O)c1ccc[n+]([C@@H]2O[C@H](COP(=O)([O-])OP(=O)(O)OC[C@H]3O[C@@H](n4cnc5c(N)ncnc54)[C@H](O)[C@@H]3O)[C@@H](O)[C@H]2O)c1", "note": "[NAD^+]", "values": [{"measurement": "NADase assay with HPLC, purified bacterial protein", "result": "bacterially expressed mouse, zebrafish, and Drosophila SARM1-TIR domains also degrade NAD^+ in vitro"}]}
